Data as given in US12083196B2, “Personal cleansing compositions with surfactants for increased foam performance” (ECOLAB USA INC., priority 2020, dated 2024).

Columns and labels:
[1] = SITA Foam Analyzer foam creation; format: physicochemical; conditions: single surfactant, 1%, FIG. 1
From the text: The reagents used below include: • Alpha-Step® PC-48 is a C10-16 sodium methyl 2-sulfolaurate and disodium 2-sulfolaurate available from Stepan; • Stepan-Mild® L3 is a predominantly C12 reaction product of lauryl alcohol and lactic acid available from Stepan; • SLES is sodium laureth sulfate; • Cola® Teric is an amphoteric sultaine available from Colonial Chemical, Inc.; • Glucopon® […] is an alkyl polyglycoside available from BASF Corporation; • Suga® Nate is a sodium laurylglucosides hydrooxypropylsulfonate available from Colonial Chemicals, Inc; • Lathanol® LAL is a sodium lauryl sulfoacetate available from Stepan. All experiments ran through the SITA Foam Analyzer were as follows: Equipment: • 1) Foaming Apparatus • 2) SITA Software Reagents: • 1) 250 mL of each solution • 2) DI water Preparation: Equipment is prepared by turning the water bath on with ample time to warm up before running tests. Adjust water bath to desired temperature. Quality Assurance: Run a positive and negative control for every experiment. Ensure equipment is clean and free from any residual surfactant chemistry beforehand. In each experiment set, proper differentiation between chemistries can be seen if at least one of the tested chemistries has an “S” curve that depicts a change in the initial foam building and the lathering step. Experimental Procedure: • 1) Prepare water bath • 2) Open the “SITA-foam” software on the computer. […] Foam Generation • i. Series Count (cycles): number of measurement replicates (3-triplicate) • ii. Fill With: Volume of sample liquid (250 mL for each test) • iii. Stir Count: Number of stirrings for each test (70). This is also the number of measurements for each cycle. • iv. Stir Time: Stirring duration of sample (10 sec) • v. Revolution: RPM o the stirrer (900 RMP) • b. Cleansing • i. Click the shower icon to activate the automatic cleansing and rinsing function. The vessel will be cleaned automatically after each cycle of measurements. • ii. Normal cleansing will rinse out the vessel many times. Small cleansing indicates a faster cleansing process. All above parameters can be saved • 5) After setting the parameters, click on “Start Measurement” which is the green “Play” button to proceed with the experiment • 6) After each cycle of experiments automatic cleansing and rinsing is done in preparation for the next cycle of measurements as long as the instrument is connected to tap water or a cleansing liquid reservoir • 7) Each click on the green “Start Measurement” icon opens a new window. The current sample measurement results are all in the same project folder. To rename sample measurement files, right click on the open sample window, and click “save” to rename your sample file • 8) If an error occurs at any point with your sample, the measurement reading can be stopped by clicking the red square “Stop icon” or by pressing the large red button on the machine • 9) Organize the graph generated with the icons in the fourth section of the tool bar: create new plot, add/remove data from plot, change axis properties, and view properties. Click on the “Create new plot” icon to view the plot after the experiment is done or if it is still running. Right click to rename the plot, insert or remove the plot and display the foam buildup, foam decay, or both Establishing initial foaming of the single surfactants is important to establish baselines for comparison for the combinations of various surfactants. To establish the foaming properties of single surfactants, a high amount of each surfactant was analyzed in the SITA Foam Analyzer as described above. The final concentration of each surfactant in solution was 1%. The surfactants tested were sodium lauryl sulfate (SLES), a betaine, Cola® Teric CBS, Glucopon® […], Lathanol® LAL, and Suga® Nate 160NC. […] The compositions were tested for foaming using the SITA Foam Analyzer as described above. […]

[2] = tested on: Staphylococcus aureus (ATCC 6538), Escherichia coli (ATCC 11229), Enterobacter aerogenes (ATCC 13048), Burkholderia cepacian (ATCC 25416), Pseudomonas …; assay: Preservative test, bacterial inoculum; format: cell-based; conditions: Lathanol LAL in preserved compositions
Description: (§1) The 7 different compositions in Table 4 were tested for their preservative ability, with composition 11 being a negative control as it lacks either phenoxyethanol or benzoic acid. To test the compositions, a bacterial inoculum and a yeast and mold inoculum were created. The bacterial inoculum comprised of equal parts of Staphylococcus aureus (ATCC 6538), Escherichia coli (ATCC 11229), Enterobacter aerogenes (ATCC 13048), Burkholderia cepacian (ATCC 25416), and Pseudomonas aeruginosa (ATCC 15442). The yeast and mold inoculum comprised of equal parts of Candida albicans (ATCC 10231), Saccharomyces cerevisiae (ATCC 834), and Aspergillus niger (ATCC 16404).
(§2) The inoculates were incubated for 3 days with the bacterial inoculum at 32° C. and the yeast and mold inoculum at 26° C. The preservative compositions were added, and samples measured at 7, 14, 21, and 28 days. A sample passed if no bacteria or yeast and mod survived after Day 7, conditionally passed if there was a greater than 2.0 log reduction on day 7 when compared to day 3, with no additional growth on days 14, 21, or 28 for the bacterial samples, and if there was not more than a 0.5 log increase from the initial inoculated count at days 14 and 28 for the yeast and mold samples. The results are summarized in Table 5 for bacterial samples and Table 6 for yeast and mold.

[3] = tested on: Candida albicans (ATCC 10231), Saccharomyces cerevisiae (ATCC 834), Aspergillus niger (ATCC 16404); assay: Preservative test, yeast and mold inoculum; format: cell-based; conditions: Lathanol LAL in preserved compositions
Description: as §1, §2

Molecule | onset of foam saturation (in words) [1] | interference with preservatives, bacteria (in words) [2] | interference with antifungal or antimold capabilities (in words) [3]
C[N+](C)(C)CC(=O)O [betaine] | reached saturation at earlier cycles/readings | – | –
CCCCCCCCCCCCOC(=O)CS(=O)(=O)O.[Na] [Lathanol® LAL, sodium lauryl sulfoacetate] | performing more slowly | does not interfere with the addition of preservatives | does not interfere with the antifungal or antimold capabilities
sodium laurylglucosides hydrooxypropylsulfonate [Suga® Nate 160NC] | performing more slowly | – | –
